The source of these data is patent US9573972B2, “Nurotoxic sterol glycosides” (priority 2008, dated 2017).

Holding throughout (type): in vivo, mouse
Data set [1] can be described thus: Body weights of SG-fed mice. The conditions noted are these: SG-fed vs age-matched controls; SG 1000 μg per pellet daily for 15 weeks. The text has this: (§1) Five-month old male CD-1 mice (30.1-35.7 g, 7.5 cm-8.8 cm) were purchased from Charles River (Wilmington, Mass.). Adult mice were chosen to mimic the mean age of onset of ALS-PDC (Kurland, L. T. (1988a) Trends Neurosci. 11, 51-4; Kurland, L. T., et al. (1994) Amyotrophic lateral sclerosis-parkinsonism-dementia complex on Guam: epidemiologic and etiological perspectives. 109-131). Thirty mice for the SG study were randomly divided into 2 groups (14 control and 16 experimental animals). All animals were housed singly in a virus-free barrier facility in a room maintained at 22° C. under a 12 hour light/dark cycle. The mice were provided ad libitum access to food and water.
(§2) The synthetic SG was mixed with finely ground Purina Chow mouse pellets (Mouse Diet™, Purina) to create the experimental pellets with a SG content of 1000 μg per pellet. Dry materials were blended with a sterile silicon spatula. For every 5 g of standard feed, 2.5 mL of doubly-distilled water (dd)H2O was added and the dough was kneaded and round up into pellets. A single sterol glucoside containing pellet was placed in the feeding tray each morning before the addition of regular mouse chow (ad libitum). All experimental pellets were entirely consumed by the mice each day. […] SG feeding was conducted daily for 15 weeks and mice were behaviorally monitored until sacrifice at 35 weeks (time point 1) or 52 weeks (time point 2).

The next data set deals with male CD-1 mice. The data set is described as follows: Rotarod test, SG-fed mice. The conditions noted are these: SG-fed vs control, duration of study.
Text: as §1
as §2, with “2). […]” for “2).”

A further data set has as its system Active Caspase-3. The data set is described as follows: Anti-active caspase-3 immunofluorescence. As for the experimental part:
Tissue-mounted slides were processed for fluorescence microscopy as follows: Sections were rinsed in coplin jars for 45 minutes at room temperature (RT) in three changes of PBS. Sections were then incubated at RT for 30 minutes in a blocking permeabilization solution made of 5% normal goat serum (NGS), 5% normal rabbit serum (NRS) or 5% BlokHen II (Ayes Labs, Inc., Tigard, Oreg.), 0.05% Triton X-100 and PBS. Subsequently, the blocking solution was tipped off and the slides were rinsed in PBS for 2 minutes. […]

Entries after “also recorded” stand apart in the source; their conditions may differ.

For the compound `CC[C@H](/C=C/[C@@H](C)[C@H]1CC[C@H]2[C@@H]3CC=C4C[C@@H](O[C@@H]5O[C@H](CO)[C@@H](O)[C@H](O)[C@H]5O)CC[C@]4(C)[C@H]3CC[C@]12C)C(C)C` [SG, Stigmasterol β-D-Glucopyranoside], the Body weights entry in data set [1] is “normal weight gain; also recorded: not significantly different”. Further, the “Rotarod performance (time without fall)” value with male CD-1 mice was “decrease in the time without fall; also recorded: trend of diminished performance”. Moreover, the “Apoptotic cells over time” value in the data set with Active Caspase-3 (SG-fed group over time (35 to 52 wk)) is on record as “Apoptotic cells (SG-fed group over time) (ns)”. Also, the “Anti-active caspase 3 immunoreactive cells” value with Active Caspase-3 (SG-fed vs control, Time-point 2 (52 wk)) is “did not reach significance and (ns)”.
